# Results as given in patent publication US12617758B2, “Quinazoline derivative having FLT3 inhibitory activity, and use thereof” (INDUSTRY-UNIVERSITY COOPERATION FOUNDATION HANYANG …, priority 2020, dated 2026).
# pIC50: −log10 of the molar value. Read-outs that look alike come from different tables or passages of the source.
# Assays:
# Format in all cases: biochemical
# FLT3 = molecular target: T1, FLT3 (Homo sapiens, UniProt P36888); assay: FLT3 enzyme activity (IC50)
# T1 sequence (P36888 27-993): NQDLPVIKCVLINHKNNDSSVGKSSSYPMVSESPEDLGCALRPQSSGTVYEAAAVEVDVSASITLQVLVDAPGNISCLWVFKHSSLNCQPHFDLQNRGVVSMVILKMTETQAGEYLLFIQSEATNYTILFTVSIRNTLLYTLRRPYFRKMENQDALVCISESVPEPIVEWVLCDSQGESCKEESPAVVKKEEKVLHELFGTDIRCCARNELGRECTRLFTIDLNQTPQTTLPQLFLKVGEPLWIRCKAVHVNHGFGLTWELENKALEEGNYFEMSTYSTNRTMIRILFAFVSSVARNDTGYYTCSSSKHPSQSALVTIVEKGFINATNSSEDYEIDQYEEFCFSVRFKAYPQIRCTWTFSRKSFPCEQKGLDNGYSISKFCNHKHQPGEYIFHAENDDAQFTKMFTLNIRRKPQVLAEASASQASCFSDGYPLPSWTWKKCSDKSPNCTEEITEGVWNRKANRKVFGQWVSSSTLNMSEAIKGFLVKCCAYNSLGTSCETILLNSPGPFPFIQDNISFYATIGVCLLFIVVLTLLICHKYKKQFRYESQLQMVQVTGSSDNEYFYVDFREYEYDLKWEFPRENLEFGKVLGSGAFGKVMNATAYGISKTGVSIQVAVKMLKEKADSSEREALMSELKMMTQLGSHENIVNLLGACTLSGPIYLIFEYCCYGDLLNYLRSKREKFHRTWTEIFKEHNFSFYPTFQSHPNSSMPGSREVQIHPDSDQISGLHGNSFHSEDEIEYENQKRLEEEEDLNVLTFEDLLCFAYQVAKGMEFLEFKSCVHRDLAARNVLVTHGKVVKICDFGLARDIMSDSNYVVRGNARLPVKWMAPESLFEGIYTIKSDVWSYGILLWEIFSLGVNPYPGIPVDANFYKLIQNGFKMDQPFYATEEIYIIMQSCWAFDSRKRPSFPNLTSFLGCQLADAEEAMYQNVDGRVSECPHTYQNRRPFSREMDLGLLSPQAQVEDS
# Description: Experimental Example 1. Measurement of FLT3 and FLT Enzyme Activity
# Changes in FLT3 and FLT enzyme activities by treatment with the quinazoline derivatives of the following Table 1 according to the present invention were confirmed by IC50.
# FLT3 (D835Y) = FLT3 (D835Y) (Homo sapiens, UniProt P36888, D835Y); assay: Inhibitory activity against FLT3 mutants
# Description: (§1) Subsequently, the inhibitory activity of Compound 7d against other different FLT3 mutants was additionally investigated and is shown in Table 2. […] Further, Compound 7d was also strong against FLT3 mutations located in the TKD.
# FLT3 (F594_R595 ins EY) = FLT3 (F594_R595 ins EY) (Homo sapiens, UniProt P36888, INS594EY); assay: Inhibitory activity against FLT3 mutants; details: insertion of 2 amino acids
# Description: as §1
# FLT3 (F594_R595 ins R) = FLT3 (F594_R595 ins R) (Homo sapiens, UniProt P36888, INS594R); assay: Inhibitory activity against FLT3 mutants; details: insertion of 1 amino acid
# Description: as §1
# [1] = molecular target: FLT3 (Y591_V592 ins VDFREYEYD) (Homo sapiens, UniProt P36888, INS591VDFREYEYD); assay: Inhibitory activity against FLT3 mutants; details: insertion of 9 amino acids
# Description: as §1
# ABL1 = ABL1 (Homo sapiens, UniProt P00519); assay: Kinase panel screening; details: single dose of 10 μM, read-out: % inhibition rate
# AKT1 = AKT1 (Homo sapiens, UniProt P31749); assay: Kinase panel screening; details: single dose of 10 μM, read-out: % inhibition rate
# ALK = ALK (Homo sapiens, UniProt Q9UM73); assay: Kinase panel screening; details: single dose of 10 μM, read-out: % inhibition rate
# AXL = AXL (Homo sapiens, UniProt P30530); assay: Kinase panel screening; details: single dose of 10 μM, read-out: % inhibition rate
# BTK = BTK (Homo sapiens, UniProt Q06187); assay: Kinase panel screening; details: single dose of 10 μM, read-out: % inhibition rate
# Sequence of BTK (Q06187 whole entry, species assumed): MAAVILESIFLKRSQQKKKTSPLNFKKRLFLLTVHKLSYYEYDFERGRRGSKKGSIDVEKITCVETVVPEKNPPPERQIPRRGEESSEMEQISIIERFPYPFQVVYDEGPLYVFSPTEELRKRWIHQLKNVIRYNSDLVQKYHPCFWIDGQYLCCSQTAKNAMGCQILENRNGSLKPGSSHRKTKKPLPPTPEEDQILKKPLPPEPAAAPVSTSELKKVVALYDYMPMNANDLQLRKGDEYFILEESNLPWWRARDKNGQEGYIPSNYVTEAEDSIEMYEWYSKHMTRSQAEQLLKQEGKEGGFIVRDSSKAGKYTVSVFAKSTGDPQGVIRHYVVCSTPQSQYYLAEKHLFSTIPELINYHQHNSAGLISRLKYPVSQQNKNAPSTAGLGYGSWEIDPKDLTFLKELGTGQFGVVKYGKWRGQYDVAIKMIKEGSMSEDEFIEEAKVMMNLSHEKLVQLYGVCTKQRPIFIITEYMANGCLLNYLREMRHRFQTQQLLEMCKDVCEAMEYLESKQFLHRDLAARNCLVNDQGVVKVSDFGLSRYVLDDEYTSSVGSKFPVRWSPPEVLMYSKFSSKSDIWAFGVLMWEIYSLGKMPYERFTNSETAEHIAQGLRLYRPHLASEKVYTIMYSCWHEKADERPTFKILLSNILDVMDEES
# c-MET = c-MET (Homo sapiens, UniProt P08581); assay: Kinase panel screening; details: single dose of 10 μM, read-out: % inhibition rate
# CAMKK1 = CAMKK1 (Homo sapiens, UniProt Q8N5S9); assay: Kinase panel screening; details: single dose of 10 μM, read-out: % inhibition rate
# CDK4/cyclin D1 = CDK4/cyclin D1 (Homo sapiens, UniProt P11802); assay: Kinase panel screening; details: single dose of 10 μM, read-out: % inhibition rate
# EGFR = EGFR (Homo sapiens, UniProt P00533); assay: Kinase panel screening; details: single dose of 10 μM, read-out: % inhibition rate
# FGFR3 = FGFR3 (Homo sapiens, UniProt P22607); assay: Kinase panel screening; details: single dose of 10 μM, read-out: % inhibition rate
# FLT3-ITD = FLT3-ITD (Homo sapiens, UniProt P36888); assay: Kinase panel screening; details: single dose of 10 μM
# FMS = FMS (Homo sapiens, UniProt P07333); assay: Kinase panel screening; details: single dose of 10 μM, read-out: % inhibition rate
# Sequence of FMS (P07333 20-972, species assumed): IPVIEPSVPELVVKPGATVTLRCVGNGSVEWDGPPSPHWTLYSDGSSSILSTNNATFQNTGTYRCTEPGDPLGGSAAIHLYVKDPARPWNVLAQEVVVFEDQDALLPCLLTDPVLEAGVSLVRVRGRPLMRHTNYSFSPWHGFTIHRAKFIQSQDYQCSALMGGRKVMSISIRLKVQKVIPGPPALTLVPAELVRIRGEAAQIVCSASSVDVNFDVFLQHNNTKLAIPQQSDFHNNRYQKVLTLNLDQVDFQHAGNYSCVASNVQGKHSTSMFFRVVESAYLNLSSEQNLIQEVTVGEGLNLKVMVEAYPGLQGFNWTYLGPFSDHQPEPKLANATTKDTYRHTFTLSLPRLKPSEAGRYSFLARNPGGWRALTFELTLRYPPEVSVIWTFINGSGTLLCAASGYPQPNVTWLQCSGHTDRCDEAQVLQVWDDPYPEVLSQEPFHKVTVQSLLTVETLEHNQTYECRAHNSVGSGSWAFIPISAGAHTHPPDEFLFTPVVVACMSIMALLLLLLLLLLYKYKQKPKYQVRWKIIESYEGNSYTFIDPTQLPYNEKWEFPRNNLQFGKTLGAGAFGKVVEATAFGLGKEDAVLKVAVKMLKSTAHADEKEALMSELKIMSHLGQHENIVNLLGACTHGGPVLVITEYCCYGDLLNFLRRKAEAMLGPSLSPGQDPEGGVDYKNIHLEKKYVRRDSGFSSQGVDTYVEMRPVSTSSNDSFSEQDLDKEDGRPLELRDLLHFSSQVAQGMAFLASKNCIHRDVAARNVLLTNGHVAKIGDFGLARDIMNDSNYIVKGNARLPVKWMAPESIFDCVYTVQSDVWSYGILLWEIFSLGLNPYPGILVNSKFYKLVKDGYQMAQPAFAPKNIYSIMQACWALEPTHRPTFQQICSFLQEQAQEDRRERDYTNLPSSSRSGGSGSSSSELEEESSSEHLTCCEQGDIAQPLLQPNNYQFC
# FYN = FYN (Homo sapiens, UniProt P06241); assay: Kinase panel screening; details: single dose of 10 μM, read-out: % inhibition rate
# GSK3b = GSK3b (Homo sapiens, UniProt P49841); assay: Kinase panel screening; details: single dose of 10 μM, read-out: % inhibition rate
# IGF1R = IGF1R (Homo sapiens, UniProt P08069); assay: Kinase panel screening; details: single dose of 10 μM, read-out: % inhibition rate
# Sequence of IGF1R (P08069 31-1367, species assumed): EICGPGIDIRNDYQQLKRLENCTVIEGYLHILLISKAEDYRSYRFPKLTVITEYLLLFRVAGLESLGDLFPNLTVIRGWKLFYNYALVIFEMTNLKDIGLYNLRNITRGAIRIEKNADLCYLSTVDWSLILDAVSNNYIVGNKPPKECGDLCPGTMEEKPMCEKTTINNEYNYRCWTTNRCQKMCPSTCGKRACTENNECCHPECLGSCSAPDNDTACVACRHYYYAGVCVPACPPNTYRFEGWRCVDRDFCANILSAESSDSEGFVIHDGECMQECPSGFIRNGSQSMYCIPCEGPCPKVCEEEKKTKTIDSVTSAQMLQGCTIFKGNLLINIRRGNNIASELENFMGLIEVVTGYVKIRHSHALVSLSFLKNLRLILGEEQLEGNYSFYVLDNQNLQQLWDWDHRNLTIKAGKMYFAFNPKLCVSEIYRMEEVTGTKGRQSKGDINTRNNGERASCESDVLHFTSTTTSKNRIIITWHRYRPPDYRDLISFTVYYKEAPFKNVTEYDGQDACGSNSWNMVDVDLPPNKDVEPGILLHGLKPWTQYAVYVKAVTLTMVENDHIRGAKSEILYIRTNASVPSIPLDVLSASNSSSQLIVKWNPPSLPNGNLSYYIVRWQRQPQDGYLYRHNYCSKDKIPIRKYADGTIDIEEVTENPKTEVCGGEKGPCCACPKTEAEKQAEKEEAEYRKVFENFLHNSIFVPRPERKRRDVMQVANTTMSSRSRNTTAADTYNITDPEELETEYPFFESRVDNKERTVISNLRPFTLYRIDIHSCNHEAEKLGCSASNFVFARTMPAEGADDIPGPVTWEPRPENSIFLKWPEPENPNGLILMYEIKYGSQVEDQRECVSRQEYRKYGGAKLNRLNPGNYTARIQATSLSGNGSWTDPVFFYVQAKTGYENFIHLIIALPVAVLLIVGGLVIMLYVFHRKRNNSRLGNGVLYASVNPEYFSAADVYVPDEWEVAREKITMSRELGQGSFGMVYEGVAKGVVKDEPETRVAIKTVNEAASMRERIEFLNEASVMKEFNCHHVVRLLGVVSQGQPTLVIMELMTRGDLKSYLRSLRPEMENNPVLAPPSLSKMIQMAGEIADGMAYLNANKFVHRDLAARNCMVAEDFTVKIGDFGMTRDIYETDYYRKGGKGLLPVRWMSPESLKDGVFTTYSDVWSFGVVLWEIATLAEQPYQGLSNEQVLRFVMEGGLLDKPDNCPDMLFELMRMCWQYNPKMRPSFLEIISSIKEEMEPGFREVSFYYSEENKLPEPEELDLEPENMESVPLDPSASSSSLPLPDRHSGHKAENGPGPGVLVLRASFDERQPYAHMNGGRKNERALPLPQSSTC
# JAK3 = JAK3 (Homo sapiens, UniProt P52333); assay: Kinase panel screening; details: single dose of 10 μM, read-out: % inhibition rate
# KDR/VEGFR2 = KDR/VEGFR2 (Homo sapiens, UniProt P35968); assay: Kinase panel screening; details: single dose of 10 μM, read-out: % inhibition rate
# Sequence of KDR/VEGFR2 (P35968 20-1356): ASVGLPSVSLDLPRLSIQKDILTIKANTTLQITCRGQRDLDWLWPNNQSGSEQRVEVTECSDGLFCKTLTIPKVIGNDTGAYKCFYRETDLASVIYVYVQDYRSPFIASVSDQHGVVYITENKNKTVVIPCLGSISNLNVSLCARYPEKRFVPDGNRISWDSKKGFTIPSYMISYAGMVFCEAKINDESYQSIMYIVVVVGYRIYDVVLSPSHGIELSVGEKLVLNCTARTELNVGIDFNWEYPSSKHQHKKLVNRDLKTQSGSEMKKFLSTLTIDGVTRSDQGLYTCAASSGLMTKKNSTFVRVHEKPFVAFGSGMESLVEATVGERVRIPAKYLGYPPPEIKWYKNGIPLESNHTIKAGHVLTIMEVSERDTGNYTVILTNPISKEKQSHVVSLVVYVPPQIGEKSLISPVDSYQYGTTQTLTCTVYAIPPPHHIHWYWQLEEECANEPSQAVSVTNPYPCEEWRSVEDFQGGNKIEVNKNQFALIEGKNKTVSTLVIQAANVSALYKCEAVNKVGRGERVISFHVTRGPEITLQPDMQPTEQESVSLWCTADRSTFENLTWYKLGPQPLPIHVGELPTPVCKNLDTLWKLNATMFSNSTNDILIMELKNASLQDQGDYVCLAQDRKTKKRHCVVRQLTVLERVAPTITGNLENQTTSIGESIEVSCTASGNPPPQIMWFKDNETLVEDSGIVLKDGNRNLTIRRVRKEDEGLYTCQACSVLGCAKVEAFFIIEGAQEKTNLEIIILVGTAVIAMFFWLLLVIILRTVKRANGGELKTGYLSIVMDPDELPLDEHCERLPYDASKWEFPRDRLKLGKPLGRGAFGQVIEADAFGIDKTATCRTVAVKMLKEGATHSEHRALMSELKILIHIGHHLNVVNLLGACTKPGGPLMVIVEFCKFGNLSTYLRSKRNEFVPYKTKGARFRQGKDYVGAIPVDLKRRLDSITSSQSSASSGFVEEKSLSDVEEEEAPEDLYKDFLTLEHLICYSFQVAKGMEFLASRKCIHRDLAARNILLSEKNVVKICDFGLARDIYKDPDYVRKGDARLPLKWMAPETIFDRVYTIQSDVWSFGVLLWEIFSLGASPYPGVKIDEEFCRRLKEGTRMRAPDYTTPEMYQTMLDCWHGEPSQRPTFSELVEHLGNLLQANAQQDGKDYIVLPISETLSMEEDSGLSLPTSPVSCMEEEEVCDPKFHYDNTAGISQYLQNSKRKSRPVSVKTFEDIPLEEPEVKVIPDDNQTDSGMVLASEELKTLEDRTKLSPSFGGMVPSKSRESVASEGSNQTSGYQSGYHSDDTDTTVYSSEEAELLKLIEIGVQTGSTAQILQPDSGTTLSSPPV
# LCK = LCK (Homo sapiens, UniProt P06239); assay: Kinase panel screening; details: single dose of 10 μM, read-out: % inhibition rate
# Sequence of LCK (P06239 whole entry, species assumed): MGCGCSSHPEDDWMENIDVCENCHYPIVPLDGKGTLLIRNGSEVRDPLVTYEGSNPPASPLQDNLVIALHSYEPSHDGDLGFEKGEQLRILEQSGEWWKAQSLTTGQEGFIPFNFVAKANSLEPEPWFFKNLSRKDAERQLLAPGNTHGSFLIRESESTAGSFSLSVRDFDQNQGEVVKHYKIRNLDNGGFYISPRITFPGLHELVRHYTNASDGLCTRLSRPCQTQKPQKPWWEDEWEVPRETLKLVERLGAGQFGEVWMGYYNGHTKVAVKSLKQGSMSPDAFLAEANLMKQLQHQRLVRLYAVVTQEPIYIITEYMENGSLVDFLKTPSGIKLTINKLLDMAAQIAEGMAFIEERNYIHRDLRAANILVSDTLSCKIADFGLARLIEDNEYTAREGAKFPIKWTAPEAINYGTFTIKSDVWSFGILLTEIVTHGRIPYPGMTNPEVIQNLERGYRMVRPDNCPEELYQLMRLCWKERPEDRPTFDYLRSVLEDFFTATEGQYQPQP
# PLK1 = PLK1 (Homo sapiens, UniProt P53350); assay: Kinase panel screening; details: single dose of 10 μM, read-out: % inhibition rate
# RON/MST1R = RON/MST1R (Homo sapiens, UniProt Q04912); assay: Kinase panel screening; details: single dose of 10 μM, read-out: % inhibition rate
# ROS/ROS1 = ROS/ROS1 (Homo sapiens, UniProt P08922); assay: Kinase panel screening; details: single dose of 10 μM, read-out: % inhibition rate
smiles,measurement,setting,value
"Cc1oncc1C(=O)Nc1ccc2cnc(-c3cc(N4CCN(C)CC4)cc(C(F)(F)F)c3)nc2c1 [Compound 7d, 5-methyl-N-(2-(3-(4-methylpiperazin-1-yl)-5-(trifluoromethyl)phenyl)quinazolin-7-yl)isoxazole-4-carboxamide]",pIC50,FLT3; read-out: FLT3 IC50,> 5.52
same,pIC50,FLT3; read-out: IC50 against FLT3,6.97
same,pIC50,FLT3 (D835Y),6.64
same,pIC50,FLT3 (F594_R595 ins EY),6.31
same,pIC50,FLT3 (F594_R595 ins R),6.28
same,pIC50,[1],6.14
same,inhibition at 10 µM,ABL1,6.46%
same,inhibition at 10 µM,AKT1,5.48%
same,inhibition at 10 µM,ALK,17%
same,inhibition at 10 µM,AXL,21.2%
same,inhibition at 10 µM,BTK,17.5%
same,inhibition at 10 µM,c-MET,13.2%
same,inhibition at 10 µM,CAMKK1,0%
same,inhibition at 10 µM,CDK4/cyclin D1,3.01%
same,inhibition at 10 µM,EGFR,0%
same,inhibition at 10 µM,FGFR3,1%
same,% inhibition rate,FLT3-ITD,95.2%
same,inhibition at 10 µM,FMS,5.49%
same,inhibition at 10 µM,FYN,19%
same,inhibition at 10 µM,GSK3b,8.06%
same,inhibition at 10 µM,IGF1R,0%
same,inhibition at 10 µM,JAK3,0.8%
same,inhibition at 10 µM,KDR/VEGFR2,16.8%
same,inhibition at 10 µM,LCK,19.7%
same,inhibition at 10 µM,PLK1,0%
same,inhibition at 10 µM,RON/MST1R,13.5%
same,inhibition at 10 µM,ROS/ROS1,14.4%
